From US20260108547A1, “LEVERAGING L-FUCOSE-MEDIATED SIGNALING TO INDUCE MONOCYTE-DERIVED DENDRITIC CELL POLARIZATION” (H. LEE MOFFITT CANCER CENTER AND RESEARCH INSTITUTE, INC., priority 2022, published 2026) come the findings set out here.

In one test the test system is HLA-DRB1. The test can be described thus: Flow cytometric assessment of cell surface fucosylation and HLA-DRB1 in melanoma cells. It is filed as cell-based, human. Conditions: 250 μM, 72 h; flow cytometry. The protocol: Indicated cells were treated for 72 h with DMSO, 250 μM fucosyltransferase inhibitor (FUTi) (Millipore Sigma (St. Louis, MO)), or 250 μM of L-fucose (Biosynth (Oak Terrace, IL)). After 72 h, cells were stained with 0.1 μM PKH26 (Millipore Sigma (St. Louis, MO)) prior to fixation in 4% formaldehyde solution. The cells were stained with anti-HLA-DRB1 and fluorescein AAL, or anti-human or anti-mouse PD-L1 overnight. The following day the cells were washed 3 times prior to adding AlexaFluor 594 donkey anti-rabbit. Cells were washed 3 times and then subject to flow cytometric analyses using a FACSCalibur (BD Biosciences (San Jose, CA)). Samples were analyzed using FlowJo analysis software (BD Biosciences (San Jose, CA)). Median values of DRB1 and AAL were normalized to PKH26 values and statistical analysis was performed using GraphPad Prism.
A general note: Flow cytometry measures light scatter and fluorescence of single cells or particles in a stream.

Test [1] deals with SM1 tumors. The test can be described thus: Volumetric tumor growth, SM1 melanoma in C57BL/6 mice. In kind it is in vivo, mouse. Particulars: SM1 model. From the text: All animals were housed at the Vincent A. Stabile Research building animal facility at H. Lee Moffitt Cancer Center & Research Institute, which is fully accredited by the Association for Assessment and Accreditation of Laboratory Animal Care International (AAALAC, #434), and are managed in accordance with the Guide for the Care and Use of Laboratory Animals (“The Guide”), the Animal Welfare Regulations Title 9 Code of Federal Regulations Subchapter A, “Animal Welfare”, Parts 1-3 (AWR), the Public Health Service Policy on Humane Care and Use of Laboratory Animals (PHS Policy), and by the USF Institutional Animal Care and Use Committee's Principles and Procedures of Animal Care and Use (IACUC Principles). The experiments and protocols detailed in this study received institutional approval by the Moffitt IACUC (RIS00001625). Four-to-six-week-old female C3H/HeN and male C57BL6 mice were purchased from Charles Rivers Laboratories for the indicated experiments. Four-to-six-week-old male NSG mice from the Lau laboratory breeding colony were used for the indicated experiments. Power calculations were used to determine mouse cohort sizes to detect significant changes in tumor sizes. […] Mouse tumor volumes were measured using length, width and depth divided by 2. […]

For a further test, the system named is breast tumors. In words: Syngeneic breast tumor model, tumor growth and flow cytometry of immune cells. In kind it is in vivo. An excerpt: We observed that L-fucose reduces tumor growth in breast cancer and enriches for CD11c+ cells.
For test [2], the system named is SM1 tumors. In words: Flow cytometric profiling of tumors and draining lymph nodes, SM1 tumors in C57BL/6 mice fed ± L-fucose and treated ± anti-PD-1 (Table 2). In kind it is in vivo, mouse. The protocol: Tumors of SW1 or SM1 melanoma cells from […] or C57BL/6 mice, respectively) were digested using 1× tumor digest buffer (0.5 mg/mL Collagenase I, 0.5 mg/mL Collagenase IV, 0.25 mg/mL Hyalyronidase V, 0.1 mg/mL DNAse I in HBSS (Millipore Sigma (St. Louis, MO)). Tumors were homogenized using the Miltenyi MACs dissociator. Red blood cells were lysed using ACK lysis buffer (Life Technologies, (Grand Island, NY)). Tumor homogenate cells were counted using a standard hemocytometer.
Total TILs were gated first to single cells (based on forward scatter height vs width, followed by side scatter height vs. width). Live cells were gated from the Zombie negative population from the population above. TILs were gated based on splenocyte size from a control spleen. Individual immune subpopulations were sub-gated from the total TIL population using the following staining criteria: CD3^+ for CD3^+ T cells; CD3^+/CD4^+/CD8^− for CD4^+T cells; CD3^+/CD4^−/CD8^+ for CD8^+ T cells, CD11c^+/CD11b^+ for DCs; either NK1.1 (for C57/BL6 mice) or DX5 (for C3H/HeJ) for NK cells; CD11b^+/GR1^+ for MDSC-like cells; and F4/80^+ for macrophages. Single-cell suspensions from tumor and spleen tissue were stained with Live/Dead Zombie NIR (Biolegend, (San Diego, CA)) at 1:1,000 in PBS for 20 min. […]

For the compound `C[C@H](O)[C@@H](O)[C@@H](O)[C@H](O)C=O` [L-fucose], in the test with HLA-DRB1, the “cell surface HLA-DRB1” value is listed as “increased” and the cell surface fucosylation entry is reported as “increased”. Further, in the test on SM1 tumors [1], the “tumor suppression, single agent” value is reported as “less tumor suppressive than anti-PD1 alone”. Also, the “tumor suppression in combination with anti-PD1” value in the test with SM1 tumors [1] (L-fuc in combination with anti-PD1) was “augmented durable suppression”. For the same compound, the “CD11c+ cells in breast tumors” value in the test with breast tumors (flow cytometry) is listed as “enrichment of CD11c+ cells”. Further, in the test on breast tumors (syngeneic breast tumor model), the breast tumor growth entry is recorded as “dose-dependent tumor suppression”. For the same compound, in the test with SM1 tumors [2] (Day 21, lymph nodes), the “average # of cDC2 cells” value stood at 13997.11 per 10^6 cells. Also, the “intratumoral CD4+T central and effector memory cells” value with SM1 tumors [2] (SM1 model, L-fuc alone) is reported as “increased”.
